# Measurements taken from patent US20130041022A1, “Glyceollins Suppress Androgen-Responsive Prostate Cancer” (UNITED STATES DEPARTMENT OF AGRICULTURE, priority 2008, published 2013).
# Key:
# Type in all cases: cell-based, human
# PC-3 cells = assay: Cell cycle analysis using flow cytometry (PI), PC-3; conditions: 25 μM, 72 hours
# Description: PC-3 cells (3×10^6 cells) were plated in T-175 flask and treated with or without 25 μM of glyceollins or genistein for 72 hr, cell cycle analysis performed as described below. Results are expressed as % of total cells (n=3).
# (§1) Cell cycle analysis using flow cytometry. LNCaP or PC3 cells (3×10^6 cells) were seeded into T-175 flask in Medium A. Twenty-four hours later the medium was changed to that containing vehicle or test compounds. […] The cellular DNA was then analyzed by flow cytometry. DNA content of the cells was determined through flow cytometry using a FACScalibur cytometer (Becton Dickinson, San Jose, Calif.). Flow cytometric data files were collected and analyzed using the CELLQuest program (Becton Dickinson). […] Cell cycle distribution percentages of stained nuclei were calculated using Modfit LT software (Version 3.0, Verity Software House, Inc., Topsham, Me.). […]
# CDKN1B mRNA = assay: RT-PCR CDKN1B mRNA in LNCaP cells; conditions: 48 hours treatment, 0-25 μM
# Description: LNCaP cells cultured in 10% FBS were treated with 0, 2.5, 12.5, or 25 μM glyceollins for 48 h, total RNA isolated and mRNA levels of CDKN1A determined as described below. Results are expressed as mean+/−SD (n=3).
# (§2) Determination of the effects of glyceollins on gene expression in LNCaP cells using RT-PCR. To examine the effects of glyceollins on cyclin inhibitor CDKN1A and B mRNA expression, LNCaP cells were plated in 6-well plates (0.25×10^6 cells/well) in Media A. After twenty-four hours the medium was removed and replaced with fresh medium containing vehicle, 1, 5, or 25 μM glyceollins or genistein. For experiments examining the effects of glyceollins on steroid hormone, LNCaP cells were plated in 6-well plates (0.25×10^6 cells/well) in Media A and switched to Media B containing 10% CDS 24 h after plating to minimize the effect of serum hormones. Twenty-four hours later, the medium was replaced with fresh medium containing 1 nM DHT or 17β-estradiol with or without 0-25 μM glyceollin. For all experiments fresh medium containing the test compounds was changed daily and cells were harvested for total RNA isolation using the Trizol method (Invitrogen) after 48 h. Taqman real-time PCR was used to quantify expression of the mRNA. […]
# CDKN1A mRNA = assay: RT-PCR CDKN1A mRNA in LNCaP cells; conditions: 48 hours treatment, 10% FBS
# Description: LNCaP cells cultured in 10% FBS were treated with 0, 2.5, 12.5, or 25 μM glyceollins for 48 h, total RNA isolated and mRNA levels of CDKN1A determined as described below. Results are expressed as mean +/−SD (n=3).
# LNCaP cells cultured in 10% FBS were treated with 0, 1, 5, 12.5 or 25 μM genistein for 48 h, total RNA isolated and mRNA levels of CDKN1A determined as described below. Results are expressed as mean+/−SD (n=3).
# as §2, with “For all experiments fresh medium containing the test compounds was changed daily and cells were harvested for total RNA isolation using the Trizol method (Invitrogen) after 48 h.” left out
# LNCaP cells = assay: Cell cycle analysis using flow cytometry (PI), LNCaP; conditions: 72 hours; glyceollins 0-25 μM, genistein 25 μM
# Description: LNCaP cells (3×10^6 cell) were plated in T-175 flask and treated with 0, 0.25, 2.5, 12.5, or 25 μM glyceollins or with and without genistein (25 μM) for 72 hr, cell cycle analysis performed as described below. Results are expressed as % of total cells (n=3).
# as §1
smiles,measurement,setting,value
O=c1c(-c2ccc(O)cc2)coc2cc(O)cc(O)c12 [genistein],G2/M blockage in PC-3 cells,PC-3 cells,lead to G2/M blockage
same,effect on CDKN1B mRNA levels in LNCaP cells,CDKN1B mRNA,no changes
same,concentration at which significant change/induction of CDKN1A mRNA is observed,CDKN1A mRNA,25 µM
same,effect on cell cycle progression in LNCaP cells,LNCaP cells,G1/G0 arrest
